Literature values as cited in USRE50805E1, “Single-layer oral dose of neuro-attenuating ketamine” (ACADIA Pharmaceuticals Inc., priority 2013, dated 2026).
Counter-ions that a name gives are not always drawn.

Tests used:
[1] = after oral administration, background statement
[2] = not given; remark: listed apart in the source

SMILES	elimination half-life [1] [h]	optimal efficacy plasma concentration (exceeding it leads to more pronounced side effects) [ng/mL]	blood concentration level above which side effects may become more pronounced (in vivo)	solubility in water [2]
CNC1(c2ccccc2Cl)CCCCC1=O (racemic) [ketamine, (R,S)—2-(2-chlorophenyl)-2-(methylamino) cyclohexanone]	2 to 3	10 to 300	above 300 ng/L	
NC1(c2ccccc2Cl)CCCCC1=O (racemic) [norketamine, (R,S)—2-(2-chlorophenyl)-2-(amino) cyclohexanone]	4			
CNC1(c2ccccc2Cl)CCCCC1=O (centres unmarked) [ketamine hydrochloride]				about 200 mg/ml
